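1) Cells in 96-well plates. 2) Compound, 48 h, 5 concentrations. 3) Linear interpolation between surrounding doses. 4) Unreached endpoint = highest concentration. Abbreviation: GI50, concentration required for 50% inhibition of growth. TGI: total growth inhibition.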

The text below walks through data of PubChem BioAssay (NCI).

Holding throughout (test): NCI tumour cell line growth inhibition, 48 h
Assay [1] concerns A549 NSCLC.
Assay [2] has as its system COLO 205 colon.
For assay [3], the system named is KM12 colon.
In assay [4] the test system is NCI-H460 lung.
Assay [5] deals with NCI/ADR-RES ovarian.
In assay [6] the test system is OVCAR-3 ovarian.
Assay [7] concerns OVCAR-8 ovarian.
In assay [8] the test system is SF-268 CNS.
For assay [9], the system named is SF-295 CNS.
In assay [10] the test system is SN12C renal.

Consider `O=c1cc(-c2ccncc2)[nH]c2cc3c(cc12)OCO3`, for which the TGI in assay [1], in assay [2], in assay [3], in [4], in [5] and in [6] was over 100 µM throughout. For the same compound, the TGI in assay [7], in assay [8], in assay [9] and in assay [10] was over 100 µM each time.

Turning to `COc1ccc(C2C3=C(COC3=O)Oc3cc4c(cc32)OCO4)c(OC)c1` (stereo not given), the TGI in [1] was over 100 µM; in assay [2], over 100 µM; in assay [3], over 100 µM; in assay [4], over 100 µM; in [5], over 100 µM; in [6], 58.7 µM. The TGI in assay [7] is over 100 µM; in assay [8], over 100 µM; in assay [9], 29.8 µM; in [10] it was over 100 µM.

With `Cn1c(=O)c2c(nc3n(Cc4ccccc4)c(=O)c(NCCCBr)cn23)n(C)c1=O`, the TGI in assay [1], in [2], in assay [3], in assay [4], in [5] and in assay [6] was over 100 µM each time. Besides, the TGI in [7], in assay [8], in assay [9] and in assay [10] was over 100 µM each time.

For the compound `COc1ccccc1C1Nn2c(nc3ccccc3c2=O)N1c1ccc(C)cc1` (stereo not given), the TGI in assay [1] is 19.7 µM; in assay [2] it was 21.2 µM; in [3], 60.3 µM; in assay [4], 16.3 µM; in assay [5], 23.6 µM; in assay [6], 18.6 µM. Moreover, the TGI in [7] came to 17 µM; in assay [8] it was 25.1 µM; in [9], 17.8 µM; in [10] it was 21.7 µM.

Turning to `CCn1c2ccc(C(=O)CCCN3CCCCC3)cc2c2cc(C(=O)CCCN3CCCCC3)ccc21`, the TGI was 3.86 µM in assay [1]; 15.7 µM in assay [2]; 8.76 µM in [3]; 3.12 µM in assay [4]; 13.1 µM in assay [5]; 5.3 µM in assay [6]. The TGI was 6.6 µM in assay [7], 18.6 µM in assay [8], 10.7 µM in [9] and 20 µM in assay [10].

On to `CCCCC1=C(C(=O)N2CCOCC2)C2(OCCO2)C1=O`, for which the TGI in [1] is 87.7 µM; in assay [2] it was 40.2 µM; in assay [3], 55.9 µM; in assay [4], over 100 µM; in assay [5], 57.2 µM; in [6], 39.7 µM. Further, the TGI in assay [7] was 58.3 µM; in [8] it was 86.7 µM; in [9], over 100 µM; in [10], 32.7 µM.

Regarding `CCCCOc1ccc(OCCCCCCCCCC[N+](C)(C)C)cc1`, the TGI in [1] was 15.2 µM; in [2], 2.68 µM; in assay [3], 2.97 µM; in assay [4], 12.7 µM; in [5], over 100 µM; in assay [6], 7.89 µM. The TGI came out at 22 µM in assay [7], 13.9 µM in assay [8], 19.9 µM in assay [9] and 12.2 µM in [10].

Regarding `Cn1c(=O)c(-c2ccccc2)c(O)c2ccccc21`, the TGI in assay [1], in assay [2], in [3], in assay [4], in [5] and in assay [6] was over 100 µM each time. Further, the TGI in assay [7], in assay [8], in [9] and in assay [10] was over 100 µM in each case.

On to `C=C1N(C=O)C(C)(C)N(O)C1(C)C`, for which the TGI in assay [1], in [2], in assay [3], in assay [4], in [5] and in assay [6] was over 100 µM each time. Also, the TGI in assay [7], in [8], in assay [9] and in [10] was over 100 µM in each case.

Consider `CN(C)CCCNC(=O)c1cc(NC(=O)c2cc(NC(=O)CCCn3c4ccccc4c4ccccc43)cn2C)cn1C`, for which the TGI in assay [1] was over 67.7 µM; in [2], 7.88 µM; in assay [3], 43.9 µM; in [4], over 94 µM; in assay [5], 53.2 µM; in assay [6], over 72.5 µM. Moreover, the TGI was over 66.2 µM in [7], 41.6 µM in assay [8], over 69.7 µM in [9] and 33.2 µM in [10].

On to `COc1cc(S(=O)(=O)Nc2ccc(C(=O)/C=C/c3ccc(O)cc3)cc2)ccc1F`, for which the GI50 in assay [1], in assay [2], in assay [3], in assay [4], in assay [5] and in assay [6] was over 100 µM each time. Further, the GI50 was over 100 µM in assay [7], over 100 µM in assay [8], over 100 µM in assay [9] and 2.61 µM in assay [10]. Further, the TGI in [1], in [2], in assay [3], in assay [4], in [5] and in assay [6] was over 100 µM throughout. Further, the TGI in assay [7] is over 100 µM; in assay [8], over 100 µM; in [9] it was over 100 µM; in [10], 89.7 µM.

Regarding `O=C1C=CC(=O)c2c(O)c(N3CCC[C@H]3CO)c(Cl)c(O)c21`, the TGI in [1] is over 10 µM; in assay [2] it was 3.22 µM; in assay [3] it was over 6.06 µM; in assay [4] it was over 10 µM; in [5], 4.06 µM; in [6], over 7.45 µM. The TGI in assay [7] is over 6.11 µM; in assay [8] it was over 10 µM; in assay [9], over 10 µM; in [10], 3.2 µM.

Regarding `CN1C(=O)N(C)C(O)C(Cl)(Br)C1=O` (stereo not given), the TGI in [1], in assay [2], in [3], in assay [4], in [5] and in assay [6] was over 100 µM in each case. For the same compound, the TGI in [7], in assay [8], in [9] and in [10] was over 100 µM in each case.

Regarding `CN(C)CCNC(=O)c1cc(Cl)cc2ccc(-c3ccccc3)nc12`, the TGI in assay [1] is 12.4 µM; in assay [2], 4.28 µM; in assay [3], 22.2 µM; in [4], 7.09 µM; in [5], 10.9 µM; in assay [6], 15.8 µM. The TGI is 13.2 µM in [7], 19.2 µM in [8], 15.4 µM in assay [9] and 12.9 µM in assay [10].

`COc1cc(C(=O)Oc2ccc3c(c2)OCO3)cc(OC)c1OC`: the TGI in [1], in assay [2], in [3], in assay [4], in assay [5] and in assay [6] was over 100 µM each time. Further, the TGI in [7], in assay [8], in assay [9] and in [10] was over 100 µM in each case.

Regarding `Cc1c(CN2CCN(C)CC2)c(CN2CCN(C)CC2)c(C)n1-c1ccc(Cl)cc1`, the TGI in assay [1] was 91.1 µM; in assay [2], 55.5 µM; in assay [3], over 100 µM; in [4], over 100 µM; in assay [5] it was over 100 µM; in assay [6], over 100 µM. Further, the TGI in assay [7] was 51.6 µM; in assay [8] it was over 100 µM; in assay [9], 48.9 µM; in assay [10], over 100 µM.

In the case of `COc1ccc2nc(/C(N)=C\C#N)ccc2c1`, the TGI in assay [1], in [2], in [3], in [4], in assay [5] and in assay [6] was over 100 µM each time. The TGI in [7], in assay [8], in assay [9] and in [10] was over 100 µM each time.

Regarding `CSC(SC)=C(C(=O)O)P(=O)(O)O`, the TGI in assay [1], in [2], in [3], in [4], in assay [5] and in assay [6] was over 100 µM in each case. Also, the TGI in [7], in [8], in assay [9] and in assay [10] was over 100 µM each time.

For the compound `CSc1cc(=O)n2c3ccccc3c3ccnc1c32`, the TGI in assay [1], in [2], in assay [3], in assay [4], in [5] and in assay [6] was over 100 µM throughout. Moreover, the TGI in assay [7] was over 100 µM; in [8], over 75.5 µM; in assay [9], over 100 µM; in assay [10], over 100 µM.

In the case of `O=[N+]([O-])c1ccc(NC(=S)N=Nc2c(O)[nH]c3ccc([N+](=O)[O-])cc23)cc1`, the TGI was 48.1 µM in assay [1]; over 100 µM in assay [2]; 37.6 µM in [3]; 41.9 µM in [4]; 48.6 µM in [5]; 47.5 µM in [6]. In addition, the TGI in [7] was over 100 µM; in assay [8] it was 72.4 µM; in assay [9], 45.1 µM; in assay [10] it was over 100 µM.

Take `N#C/C(=C/n1c(=S)[nH]c2ccc([N+](=O)[O-])cc21)C(N)=O`: the TGI in assay [1], in assay [2], in assay [3], in [4], in assay [5] and in assay [6] was over 100 µM in each case. For the same compound, the TGI in [7], in [8], in assay [9] and in [10] was over 100 µM throughout.

Consider `O=S(=O)(O)c1ccc(N=Nc2ccc(N=Nc3ccc(/C=C/c4ccc(N=[N+]([O-])c5ccc(/C=C/c6ccc(N=Nc7ccc(N=Nc8ccc(S(=O)(=O)O)cc8)cc7)cc6S(=O)(=O)O)c(S(=O)(=O)O)c5)cc4S(=O)(=O)O)c(S(=O)(=O)O)c3)cc2)cc1`, for which the TGI in assay [1], in assay [2], in assay [3], in [4], in assay [5] and in assay [6] was over 100 µM in each case. Besides, the TGI in [7], in assay [8], in assay [9] and in assay [10] was over 100 µM throughout.

For the compound `C/C(Cl)=N\OC(=O)Nc1ccc(C)cc1`, the TGI in [1] was 35.6 µM; in assay [2], 33.3 µM; in [3], 35.1 µM; in assay [4], 33.4 µM; in assay [5] it was 42.1 µM; in assay [6] it was 34.3 µM. Also, the TGI in [7] is 32.4 µM; in assay [8] it was 32.9 µM; in assay [9], 30.5 µM; in [10] it was 33.7 µM.

On to `Cc1ccc2c(c1)-c1c(C#N)c(N)nc(-c3ccc(Cl)cc3)c1CCS2(=O)=O`, for which the TGI is over 100 µM in assay [1]; 31.3 µM in assay [2]; over 100 µM in assay [3]; over 100 µM in assay [4]; 98.2 µM in [5]; 44.4 µM in assay [6]. Moreover, the TGI in assay [7], in [8], in [9] and in assay [10] was over 100 µM throughout.

Turning to `C=C(C)OCOCCOC`, the TGI in [1], in assay [2], in assay [3], in [4], in assay [5] and in [6] was over 100 µM in each case. The TGI in assay [7], in assay [8], in [9] and in [10] was over 100 µM throughout.

As to `COc1ccc(/C=c2\s/c(=C3/SC(=S)N(c4ccccc4)C3=O)n(-c3ccccc3)c2=O)cc1`, the TGI in [1], in assay [2], in assay [3], in assay [4], in assay [5] and in assay [6] was over 100 µM throughout. In addition, the TGI was over 100 µM in assay [7], 26.9 µM in [8], over 100 µM in assay [9] and over 100 µM in [10].
